The results in this text go back to ChEMBL document CHEMBL3045590, “Design, synthesis, bioactivity, and structure-activity relationship (SAR) studies of novel benzoylphenylureas containing oxime ether group” (2008).

Molecules are shown by their SMILES.

Common to all, as to format: functional
Assay [1] deals with Culex pipiens pallens. Put plainly: Ratio of larvicidal activity of compound to larvicidal activity of Flucycloxuron for fourth-instar larval stage of Culex pipiens pallens (mosquito) measured after 8 days.
The subject of assay [2] is Culex pipiens pallens. The experiment in a line: Larvicidal activity against fourth-instar larval stage of Culex pipiens pallens (mosquito) assessed as mortality at 0.00025 mg/l at 25 +/-1 degC after 8 days. The conditions noted are these: 192 h.
Assay [3] relates to Culex pipiens pallens. The experiment in a line: Larvicidal activity against fourth-instar larval stage of Culex pipiens pallens (mosquito) assessed as mortality at 0.0005 mg/l at 25 +/-1 degC after 8 days. Particulars: 192 h.
In assay [4] the test system is Culex pipiens pallens. Put plainly: Larvicidal activity against fourth-instar larval stage of Culex pipiens pallens (mosquito) assessed as mortality at 0.001 mg/l at 25 +/-1 degC after 8 days. The conditions noted are these: 192 h.
In assay [5] the test system is Culex pipiens pallens. The experiment in a line: Larvicidal activity against fourth-instar larval stage of Culex pipiens pallens (mosquito) assessed as mortality at 0.0025 mg/l at 25 +/-1 degC after 8 days. Particulars: 192 h.
Assay [6] deals with Culex pipiens pallens. Put plainly: Larvicidal activity against fourth-instar larval stage of Culex pipiens pallens (mosquito) assessed as mortality at 0.005 mg/l at 25 +/-1 degC after 8 days. Particulars: 192 h.
Assay [7] has as its system Culex pipiens pallens. Put plainly: Larvicidal activity against fourth-instar larval stage of Culex pipiens pallens (mosquito) assessed as mortality at 0.01 mg/l at 25 +/-1 degC after 8 days. The conditions noted are these: 192 h.
The test system of assay [8] is Culex pipiens pallens. The experiment in a line: Larvicidal activity against fourth-instar larval stage of Culex pipiens pallens (mosquito) assessed as mortality at 0.05 mg/l at 25 +/-1 degC after 8 days. Particulars: 192 h.
Assay [9] relates to Culex pipiens pallens. The experiment in a line: Larvicidal activity against fourth-instar larval stage of Culex pipiens pallens (mosquito) assessed as mortality at 0.025 mg/l at 25 +/-1 degC after 8 days. Particulars: 192 h.
The subject of assay [10] is Culex pipiens pallens. The experiment in a line: Larvicidal activity against fourth-instar larval stage of Culex pipiens pallens (mosquito) assessed as mortality at 0.1 mg/l at 25 +/-1 degC after 8 days. The conditions noted are these: 192 h.
Assay [11] has as its system Mythimna separata. The experiment in a line: Larvicidal activity against fourth-instar larval stage of Mythimna separata (Oriental armyworm) in compound-pretreated corn leaves assessed as mortality at 5 mg/l at 25 +/-1 degC after 4 days.
For assay [12], the system named is Mythimna separata. The experiment in a line: Larvicidal activity against fourth-instar larval stage of Mythimna separata (Oriental armyworm) in compound-pretreated corn leaves assessed as mortality at 10 mg/l at 25 +/-1 degC after 4 days.
The subject of assay [13] is Mythimna separata. Put plainly: Larvicidal activity against fourth-instar larval stage of Mythimna separata (Oriental armyworm) in compound-pretreated corn leaves assessed as mortality at 25 mg/l at 25 +/-1 degC after 4 days.
The test system of assay [14] is Mythimna separata. The experiment in a line: Larvicidal activity against fourth-instar larval stage of Mythimna separata (Oriental armyworm) in compound-pretreated corn leaves assessed as mortality at 0.25 mg/l at 25 +/-1 degC after 4 days.
Assay [15] concerns Mythimna separata. Put plainly: Larvicidal activity against fourth-instar larval stage of Mythimna separata (Oriental armyworm) in compound-pretreated corn leaves assessed as mortality at 0.5 mg/l at 25 +/-1 degC after 4 days.
Assay [16] deals with Mythimna separata. The experiment in a line: Larvicidal activity against fourth-instar larval stage of Mythimna separata (Oriental armyworm) in compound-pretreated corn leaves assessed as mortality at 2.5 mg/l at 25 +/-1 degC after 4 days.
Assay [17] has as its system Mythimna separata. The experiment in a line: Larvicidal activity against fourth-instar larval stage of Mythimna separata (Oriental armyworm) in compound-pretreated corn leaves assessed as mortality at 1 mg/l at 25 +/-1 degC after 4 days.
Assay [18] deals with Mythimna separata. Put plainly: Larvicidal activity against fourth-instar larval stage of Mythimna separata (Oriental armyworm) in compound-pretreated corn leaves assessed as mortality at 0.125 mg/l at 25 +/-1 degC after 4 days.

By mortality is commonly meant the percentage killed.

As to `O=C(NC(=O)c1c(F)cccc1F)Nc1ccc(/C=N/OC(C(F)(F)F)C(F)(F)F)cc1`, the RatioLC50 in the assay with Culex pipiens pallens [1] is 10. In addition, in the assay with Culex pipiens pallens [2], the mortality at 0.00025 µg/mL was 30%. Besides, the mortality at 0.0005 µg/mL with Culex pipiens pallens [3] was 60%. In addition, in the assay with Culex pipiens pallens [4], the mortality at 0.001 µg/mL turned out to be 90%. For the same compound, in the assay with Culex pipiens pallens [5], the mortality at 0.0025 µg/mL was 100%. Moreover, the mortality at 0.005 µg/mL in the assay with Culex pipiens pallens [6] is 100%. In addition, the mortality at 0.01 µg/mL in the assay with Culex pipiens pallens [7] was found to be 100%. Moreover, in the assay with Culex pipiens pallens [8], the mortality at 0.05 µg/mL was 100%. Moreover, the mortality at 0.025 µg/mL in the assay on Culex pipiens pallens [9] worked out at 100%. Besides, the mortality at 0.1 µg/mL in the assay on Culex pipiens pallens [10] came out at 100%. In addition, the mortality at 5 µg/mL in the assay with Mythimna separata [11] came out at 100%. Moreover, the mortality at 10 µg/mL with Mythimna separata [12] was 100%. Besides, the mortality at 25 µg/mL in the assay with Mythimna separata [13] is 100%. Moreover, the mortality at 0.25 µg/mL in the assay on Mythimna separata [14] was 0%. The mortality at 0.5 µg/mL in the assay with Mythimna separata [15] was 40%. For the same compound, in the assay with Mythimna separata [16], the mortality at 2.5 µg/mL came out at 100%. In addition, the mortality at 1 µg/mL in the assay with Mythimna separata [17] worked out at 90%.
On to `CC1CCC(C(C)C)C(O/N=C/c2ccc(NC(=O)NC(=O)c3c(F)cccc3F)cc2)C1` (stereo unspecified), for which, in the assay with Culex pipiens pallens [1], the RatioLC50 came out at 10. The mortality at 0.0005 µg/mL in the assay with Culex pipiens pallens [3] stood at 10%. For the same compound, the mortality at 0.001 µg/mL in the assay with Culex pipiens pallens [4] worked out at 80%. In the assay on Culex pipiens pallens [5], the mortality at 0.0025 µg/mL was determined as 100%. The mortality at 0.005 µg/mL in the assay on Culex pipiens pallens [6] was 100%. The mortality at 0.01 µg/mL with Culex pipiens pallens [7] is 100%. For the same compound, the mortality at 0.125 µg/mL in the assay with Mythimna separata [18] stood at 0%. Also, the mortality at 5 µg/mL in the assay with Mythimna separata [11] was determined as 100%. Further, the mortality at 10 µg/mL in the assay with Mythimna separata [12] worked out at 100%. Besides, the mortality at 25 µg/mL in the assay on Mythimna separata [13] was 100%. Also, the mortality at 0.25 µg/mL with Mythimna separata [14] was determined as 10%. For the same compound, the mortality at 0.5 µg/mL in the assay on Mythimna separata [15] turned out to be 40%. In the assay on Mythimna separata [16], the mortality at 2.5 µg/mL worked out at 100%. For the same compound, the mortality at 1 µg/mL in the assay on Mythimna separata [17] came to 80%.
